{"source": "paper PMC11130353", "about": "“Using host-mimicking conditions and a murine cutaneous abscess model to identify synergistic antibiotic combinations effective against Pseudomonas aeruginosa” (Frontiers in Cellular and Infection Microbiology, 2024)", "key": {"[1]": {"system": "P. aeruginosa LESB58-lux", "experiment": "In vitro synergy, checkerboard assay (luminescence readout)", "type": "cell-based, Pseudomonas aeruginosa", "conditions": "TCM, LESB58-lux", "protocol": "(§1) For susceptibility testing under standard conditions, bacteria were cultured in Muller Hinton Broth MHB (Fort Richards Laboratories). Host mimicking conditions in vitro were simulated using tissue culture medium (TCM) consisting of Dulbecco’s modified Eagle medium (DMEM; Gibco #11965) supplemented with FBS (Moregate Biotech) (5% v/v) and glucose (1% w/v). Further susceptibility testing was also conducted in MHB supplemented with FBS (5% v/v) and DMEM supplemented with glucose (1% w/v) and MHB (10% v/v).\nThe P. aeruginosa LESB58.lux strain was used for in vitro synergy experiments with azithromycin in MHB and all antibiotic combinations in TCM to determine bacterial growth (as visual inspection and absorbance measurements were unreliable). Synergy was determined using the checkerboard method ([Berenbaum, 1978]; [Pletzer and Hancock, 2018]) in at least triplicate. Each antibiotic was two-fold serially diluted in sterile water before transferring to a 96-well plate containing 1 × 10^6 CFU mL^-1 bacteria in MHB or TCM. Plates were incubated at 37°C for 22-24 hours. The MIC alone or in combination was recorded as the lowest antibiotic concentration with no visible growth. For experiments using the LESB58.lux strain no visible growth was defined as an at least 95% reduction compared to the no antibiotic growth control in luminescence detected using a ClarioStar plate reader. The fractional inhibitory concentration index (FICI) was calculated as [(MICA in combination)/MICA] + [(MICB in combination)/MICB]. FICI values of 0.5 or below indicated synergy, while values above 0.5 up to and including 1 were taken to indicate additivity. FICI values above 1 indicate indifference or antagonism ([Odds, 2003])."}, "[2]": {"system": "P. aeruginosa LESB58", "experiment": "microbe, parasite or virus in culture", "type": "cell-based, Pseudomonas aeruginosa", "conditions": "for MIC in MHB / MIC in TCM: 20-24 h; for MIC: Pseudomonas aeruginosa; for MIC in TCM: TCM (DMEM + 1% glucose + 5% FBS)", "protocol": "(§2) For susceptibility testing under standard conditions, bacteria were cultured in Muller Hinton Broth MHB (Fort Richards Laboratories). […] Further susceptibility testing was also conducted in MHB supplemented with FBS (5% v/v) and DMEM supplemented with glucose (1% w/v) and MHB (10% v/v).\nThe minimum inhibitory concentration (MIC) of each antibiotic was determined using the broth microdilution method in 96-well plates. […] Briefly, antibiotics were two-fold serially diluted in MHB or TCM prior to adding 1 × 10^6 CFU mL^-1 bacteria. […] The MIC was recorded as the lowest antibiotic concentration with no visible growth and the median value of at least three biological replicates reported."}, "[3]": {"conditions": "female, Swiss Webster, mouse, in vivo, sc, 1 day", "protocol": "Mice used in this study were female Swiss Webster aged approximately 6-7 weeks and sourced from the University of Otago Biomedical Research Facility. […] Briefly, the fur on the back of each mouse was removed by shaving and chemical depilation. Antibiotics were tested for skin toxicity by injecting 50 μL of antibiotic suspension subcutaneously into naïve mice, and subsequent inspection of the skin for inflammation on the next day. P. aeruginosa LESB58 was grown to mid-log phase in dYT broth, washed twice in sterile PBS (Gibco, pH 7.4), and resuspended in PBS to ~1 x 10^8 CFU per 50 μL inoculum. The bacterial suspension (50 μL) was injected subcutaneously into the right side of the dorsum, followed one hour later by 50 μL of antibiotic treatment injected directly into the infected area. […] Combination treatments were administered as a single 50 μL injection containing both antibiotics. The concentration of each antibiotic in the combination was the same as when it was used alone. Progression of the infection was monitored daily, and abscess dimensions were measured on day three using a calliper. On day three, abscess tissue and pus were excised, homogenized in sterile PBS using SPEX SamplePrep 1600 MiniG for five minutes and bacterial CFU counts determined by serial dilution."}, "[4]": {"system": "P. aeruginosa LESB58", "experiment": "Minimum bactericidal concentration", "type": "cell-based", "conditions": "Pseudomonas aeruginosa", "protocol": "as §1\nThe minimum bactericidal concentration (MBC) was determined by spotting 5 μL from wells of the MIC plate at or above the MIC onto antibiotic free dYT agar. Plates were incubated at 37°C for another 22-24 hours. The MBC was recorded as the lowest antibiotic concentration with no visible growth on agar plates and the median value reported."}, "[5]": {"system": "P. aeruginosa LESB58", "experiment": "Murine high density subcutaneous skin abscess model", "type": "in vivo, Pseudomonas aeruginosa", "conditions": "day 3; for Area of dermoncecrosis, Mean: female Swiss Webster mice", "protocol": "Mice used in this study were female Swiss Webster aged approximately 6-7 weeks and sourced from the University of Otago Biomedical Research Facility. […] The subcutaneous abscess infection model was performed as previously described ([Pletzer et al., 2017]) with a higher inoculum. Briefly, the fur on the back of each mouse was removed by shaving and chemical depilation. Antibiotics were tested for skin toxicity by injecting 50 μL of antibiotic suspension subcutaneously into naïve mice, and subsequent inspection of the skin for inflammation on the next day. P. aeruginosa LESB58 was grown to mid-log phase in dYT broth, washed twice in sterile PBS (Gibco, pH 7.4), and resuspended in PBS to ~1 x 10^8 CFU per 50 μL inoculum. The bacterial suspension (50 μL) was injected subcutaneously into the right side of the dorsum, followed one hour later by 50 μL of antibiotic treatment injected directly into the infected area. […] Combination treatments were administered as a single 50 μL injection containing both antibiotics. The concentration of each antibiotic in the combination was the same as when it was used alone. Progression of the infection was monitored daily, and abscess dimensions were measured on day three using a calliper. On day three, abscess tissue and pus were excised, homogenized in sterile PBS using SPEX SamplePrep 1600 MiniG for five minutes and bacterial CFU counts determined by serial dilution. In this model, synergy was defined as being a significant difference between the combination treated group and the amalgamated group of single drug treated animals ([Fantin and Carbon, 1992]; [Pletzer et al., 2018]).\nStatistical analysis was performed using GraphPad Prism 9.5.1. Bacterial CFU and abscess size data from in vivo experiments was analysed by Kruskal-Wallace test with Dunn’s correction for multiple comparisons. The data was considered significant when p-values were below 0.05 or 0.01 as indicated."}, "[6]": {"system": "P. aeruginosa PAO1", "experiment": "Minimum inhibitory concentration, broth microdilution", "type": "cell-based, Pseudomonas aeruginosa", "conditions": "for MIC: Pseudomonas aeruginosa, PAO1", "protocol": "as §2\nThe minimum inhibitory concentration (MIC) of each antibiotic was determined using the broth microdilution method in 96-well plates. […] Briefly, antibiotics were two-fold serially diluted in MHB or TCM prior to adding 1 × 10^6 CFU mL^-1 bacteria. Plates were incubated at 37°C for 22-24 hours. The MIC was recorded as the lowest antibiotic concentration with no visible growth and the median value of at least three biological replicates reported."}, "[7]": {"conditions": "LESB58, read-out: MIC in MHB, MHB, 20-24 h"}, "[8]": {"conditions": "LESB58, read-out: MIC in TCM, TCM (DMEM + 1% glucose + 5% FBS), 20-24 h"}, "[9]": {"conditions": "LESB58, TCM (DMEM + 1% glucose + 5% FBS)"}, "[10]": {"conditions": "LESB58, TCM (DMEM + 1% Glucose + 10% MHB)"}, "[11]": {"conditions": "Colistin, tigecycline and tobramycin groups, compared to the vehicle control"}}, "note": "Read-outs that look alike come from different tables or passages of the source.", "data": [{"smiles": "NC(=O)[C@@H]1CC[C@@H]2CN1C(=O)N2OS(=O)(=O)O", "note": "[AVI, avibactam]", "values": [{"measurement": "Fold decrease in CAZ MIC, drug combined with CAZ", "setting": "[1]", "result": 8}, {"measurement": "Fold decrease in other MIC, drug combined with CAZ", "setting": "[1]", "result": 4}, {"measurement": "FICI, drug combined with CAZ", "setting": "[1]; FICI <= 0.5 indicates synergy", "result": 0.38}, {"measurement": "MIC in MHB", "setting": "[2]; listed as Avibactam", "result": "no antimicrobial activity"}, {"measurement": "MIC in MHB", "setting": "[2]; listed as avibactam", "result": "not observed"}, {"measurement": "MIC", "setting": "[2]; [7]", "result": "> 125", "unit": "mg/L"}, {"measurement": "MIC", "setting": "[2]; [8]", "result": 31.2, "unit": "mg/L"}, {"measurement": "MIC in TCM", "setting": "[2]; listed as Avibactam", "result": "significant antimicrobial activity"}, {"measurement": "MIC in TCM", "setting": "[2]; listed as avibactam", "result": "had anti-pseudomonal activity"}, {"measurement": "Highest tolerated dose tested", "setting": "[3]", "result": 12, "unit": "mg/mL"}, {"measurement": "MBC", "setting": "[4]; LESB58, MHB", "result": "> 125", "unit": "mg/L"}, {"measurement": "MBC", "setting": "[4]; [9]", "result": 62.5, "unit": "mg/L"}]}, {"smiles": "CC(C)(O/N=C(\\C(=O)N[C@@H]1C(=O)N2C(C(=O)[O-])=C(C[n+]3ccccc3)CS[C@H]12)c1csc(N)n1)C(=O)O", "note": "[CAZ, ceftazidime]", "values": [{"measurement": "Fold increase MIC of CAZ or CZA", "setting": "[2]; MHB + 5% FBS compared to MHB", "result": 8}, {"measurement": "Fold increase MIC of CAZ or CZA", "setting": "[2]; MHB + 5% FBS compared to MHB, listed as ceftazidime", "result": "eight"}, {"measurement": "Fold change TCM vs MHB (MIC)", "setting": "[2]; MIC in TCM vs MIC in MHB", "result": 4}, {"measurement": "MIC", "setting": "[2]; LESB58, MHB + 5% FBS", "result": 250, "unit": "mg/L"}, {"measurement": "MIC", "setting": "[2]; [10]", "result": 62.5, "unit": "mg/L"}, {"measurement": "MIC", "setting": "[2]; [7]", "result": 31.2, "unit": "mg/L"}, {"measurement": "MIC", "setting": "[2]; [8]", "result": 125, "unit": "mg/L"}, {"measurement": "Fold increase MIC of CAZ or CZA", "setting": "[2]; TCM (DMEM + 1% Glucose + 10% MHB) compared to MHB", "result": 2}, {"measurement": "Fold increase MIC of CAZ or CZA", "setting": "[2]; TCM (DMEM + 1% Glucose + 10% MHB) compared to MHB, listed as ceftazidime", "result": "two"}, {"measurement": "Fold increase MIC of CAZ or CZA", "setting": "[2]; TCM (DMEM + 1% glucose + 5% FBS) compared to MHB", "result": 4}, {"measurement": "Fold increase MIC of CAZ or CZA", "setting": "[2]; TCM (DMEM + 1% glucose + 5% FBS) compared to MHB, listed as ceftazidime", "result": "four"}, {"measurement": "CFU per abscess, Fold change", "setting": "[5]; Azithromycin group, compared to the vehicle control", "result": -1.4}, {"measurement": "CFU per abscess, Geometric mean", "setting": "[5]; Azithromycin group, CAZ or CZA 50 mg/mL, AZM 6.25 mg/mL", "result": "2.6 × 10^8 CFU per abscess"}, {"measurement": "Area of dermoncecrosis, Mean", "setting": "[5]; Azithromycin group, 50 μL s.c. into infected area 1 h after infection, CAZ or CZA 50 mg/mL, AZM 6.25 mg/mL, vehicle citric acid in saline", "result": 107.3, "unit": "mm^2"}, {"measurement": "Area of dermoncecrosis, Mean", "setting": "[5]; Colistin, tigecycline and tobramycin groups (shared vehicle, CAZ and CZA mice), 50 μL s.c. 1 h after infection, CAZ or CZA 50, CST 1.25, TGC 2.5, TOB 2 mg/mL, vehicle 0.9% saline", "result": 85.3, "unit": "mm^2"}, {"measurement": "Area of dermoncecrosis, % reduction", "setting": "[5]; [11]", "result": 9.2, "unit": "%"}, {"measurement": "CFU per abscess, Fold change", "setting": "[5]; [11]", "result": -1.8}, {"measurement": "CFU per abscess, Geometric mean", "setting": "[5]; Colistin, tigecycline and tobramycin groups", "result": "1.3 × 10^8 CFU per abscess"}, {"measurement": "Fold change TCM vs MHB (MIC)", "setting": "[6]; MIC in TCM vs MIC in MHB", "result": 8}, {"measurement": "MIC", "setting": "[6]; read-out: MIC in MHB", "result": 3.13, "unit": "mg/L"}, {"measurement": "MIC", "setting": "[6]; read-out: MIC in TCM", "result": 25, "unit": "mg/L"}, {"measurement": "Highest tolerated dose tested", "setting": "[3]", "result": 50, "unit": "mg/mL"}, {"measurement": "Toxic (visible skin irritation, inflammation, blood vessels, swelling)", "setting": "[3]", "result": 100, "unit": "mg/mL"}, {"measurement": "MBC", "setting": "[4]; LESB58, MHB", "result": "> 500", "unit": "mg/L"}, {"measurement": "MBC", "setting": "[4]; LESB58, MHB + 5% FBS", "result": "> 500", "unit": "mg/L"}, {"measurement": "MBC", "setting": "[4]; [10]", "result": 500, "unit": "mg/L"}, {"measurement": "MBC", "setting": "[4]; [9]", "result": "> 500", "unit": "mg/L"}]}]}
